# Results from ChEMBL document CHEMBL4261625, “Flexibility of small molecular CD4 mimics as HIV entry inhibitors” (Bioorg Med Chem, 2018).
# How the values were obtained:
# [1] = system: Human immunodeficiency virus 1; experiment: Antiviral activity against HIV1 cYTA48P infected in PM1/CCR5 cells by single round assay; format: functional, organism-based; conditions: Human immunodeficiency virus 1, cYTA48P
# [2] = Cytotoxicity against human PM1 cells harboring CCR5 co-receptor by WST-8 assay; format: cell-based
# [3] = target: Envelope glycoprotein gp160 (Human immunodeficiency virus 1) (UniProt Q6QLK5); experiment: Induction of conformational changes in HIV1 cYTA48P envelope glycoprotein gp120 infected in PM1/CCR5 cells assessed as mean fluorescence intensity using CD4i monoclonal antibody 4C11 at 100 uM after 15 mins by FACS analysis; format: cell-based
# Chain of Envelope glycoprotein gp160 (Human immunodeficiency virus 1) (Q6QLK5 1-814): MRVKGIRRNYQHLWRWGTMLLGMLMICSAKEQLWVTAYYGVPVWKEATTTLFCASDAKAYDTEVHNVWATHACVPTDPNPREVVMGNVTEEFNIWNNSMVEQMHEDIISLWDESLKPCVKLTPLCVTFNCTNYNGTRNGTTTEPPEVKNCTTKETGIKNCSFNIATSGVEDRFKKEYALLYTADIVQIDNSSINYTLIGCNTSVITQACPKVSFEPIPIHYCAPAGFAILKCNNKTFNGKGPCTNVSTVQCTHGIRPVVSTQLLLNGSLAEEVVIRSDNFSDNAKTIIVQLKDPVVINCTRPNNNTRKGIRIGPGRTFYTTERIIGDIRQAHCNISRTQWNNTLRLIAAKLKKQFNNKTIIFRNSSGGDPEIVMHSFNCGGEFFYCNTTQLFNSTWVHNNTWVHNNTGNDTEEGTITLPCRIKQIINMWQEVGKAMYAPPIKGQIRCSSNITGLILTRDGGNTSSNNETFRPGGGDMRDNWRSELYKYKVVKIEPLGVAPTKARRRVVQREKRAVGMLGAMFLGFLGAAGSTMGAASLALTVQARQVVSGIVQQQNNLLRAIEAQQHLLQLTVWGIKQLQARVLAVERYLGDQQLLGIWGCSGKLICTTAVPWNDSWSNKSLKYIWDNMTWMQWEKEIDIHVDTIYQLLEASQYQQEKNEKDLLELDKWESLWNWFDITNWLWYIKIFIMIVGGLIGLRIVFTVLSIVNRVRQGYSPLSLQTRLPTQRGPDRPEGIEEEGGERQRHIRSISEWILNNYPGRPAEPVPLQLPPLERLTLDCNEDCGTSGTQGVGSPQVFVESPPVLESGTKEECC
# [4] = target: Envelope glycoprotein gp160 (Human immunodeficiency virus 1) (UniProt Q6QLK5); experiment: Induction of conformational changes in HIV1 cYTA48P envelope glycoprotein gp120 infected in PM1/CCR5 cells assessed as mean fluorescence intensity using CD4i monoclonal antibody 4C11 at 100 uM after 15 mins by FACS analysis relative to NBD-556; format: cell-based
# [5] = system: Human immunodeficiency virus 1; experiment: Antiviral activity against HIV1 cYTA48P infected in PM1/CCR5 cells at 10 uM by single round assay; format: functional
Compound,IC50 [1],CC50 [2],Flu intensity [3],fold change (FC) [4],Activity [5]
O=C(NC1CC2(CCCCC2)NC2(CCCCC2)C1)c1cc2cc(F)c(Cl)cc2[nH]1 (centres undefined),> 100 µM,11.3 µM,,,
CC1(C)CC(NC(=O)C(=O)Nc2ccc(Cl)cc2)CC(C)(C)N1,0.63 µM,70.4 µM,8.91,,
Cn1c(C(=O)NC2CC(C)(C)NC(C)(C)C2)cc2cc(F)c(Cl)cc21,> 100 µM,18.7 µM,,,
CCOC(=O)C1CCN(C(=O)c2cc3cc4c(cc3[nH]2)OCO4)CC1,63 µM,,26.2,0.13,
Cn1c(C(=O)NC2CC(C)(C)NC(C)(C)C2)cc2c(F)c(Cl)ccc21,> 100 µM,13.9 µM,6.74,,32%
CC1(C)CC(NC(=O)CNc2ccc3c(c2)OCO3)CC(C)(C)N1,> 30 µM,,23.4,0.073,
Cc1cc(C)c2cc(C(=O)NC3CC(C)(C)NC(C)(C)C3)[nH]c2c1,> 100 µM,60.3 µM,8.08,0.28,
Cc1cc(C)c2cc(C(=O)NC3CC4(CCCCC4)NC4(CCCCC4)C3)[nH]c2c1 (centres undefined),> 100 µM,9.6 µM,5.27,,
Cn1c(C(=O)NC2CC3(CCCCC3)NC3(CCCCC3)C2)cc2cc(F)c(Cl)cc21 (centres undefined),> 100 µM,29.4 µM,,,
CC1(C)CC(NC(=O)CNc2ccc(Cl)cc2)CC(C)(C)N1,36.9 µM,,30.2,0.22,
CC1(C)CC(NC(=O)c2cc3ccc(Cl)cc3[nH]2)CC(C)(C)N1,> 100 µM,37.4 µM,,,
CCOC(=O)C1CCN(C(=O)CNc2ccc3c(c2)OCO3)CC1,> 100 µM,,18.5,,
CCOC(=O)C1CCN(C(=O)c2cc3ccc(Cl)cc3[nH]2)CC1,> 100 µM,52.6 µM,,,
Cn1c(C(=O)NC2CC(C)(C)NC(C)(C)C2)cc2ccc(Cl)cc21,> 100 µM,33.2 µM,,,27%
CCOC(=O)C1CCN(C(=O)c2cc3c(F)c(Cl)ccc3n2C)CC1,> 100 µM,> 63.5 µM,8.63,0.76,
CC1(C)CC(NC(=O)c2cc3cc4c(cc3[nH]2)OCO4)CC(C)(C)N1,23 µM,,30.7,0.23,
CC1(C)CC(NC(=O)c2cc3c(F)c(Cl)ccc3[nH]2)CC(C)(C)N1,> 10 µM,19.4 µM,8.55,0.68,32%
CC1(C)CC(NC(=O)c2cc3cc(F)c(Cl)cc3[nH]2)CC(C)(C)N1,88.7 µM,103 µM,,,

Compound,IC50 [1],CC50 [2],Flu intensity [3],fold change (FC) [4],Activity [5]
Cn1c(C(=O)NC2CC3(CCCCC3)NC3(CCCCC3)C2)cc2ccc(Cl)cc21 (centres undefined),> 100 µM,33.9 µM,,,
CCOC(=O)C1CCN(C(=O)c2cc3ccc(Cl)cc3n2C)CC1,> 100 µM,78.4 µM,,,
CCOC(=O)C1CCN(C(=O)c2cc3c(C)cc(C)cc3n2C)CC1,> 100 µM,> 50.2 µM,8.11,0.3,
O=C(CNc1ccc2c(c1)OCO2)NC1CC2(CCCCC2)NC2(CCCCC2)C1 (centres undefined),10.8 µM,,28.7,0.19,
Cc1cc(C)c2cc(C(=O)NC3CC4(CCCCC4)NC4(CCCCC4)C3)n(C)c2c1 (centres undefined),> 100 µM,> 13.5 µM,7.96,0.17,
Cn1c(C(=O)NC2CC3(CCCCC3)NC3(CCCCC3)C2)cc2c(F)c(Cl)ccc21 (centres undefined),> 100 µM,12.3 µM,6.45,,
O=C(NC1CC2(CCCCC2)NC2(CCCCC2)C1)c1cc2cc3c(cc2[nH]1)OCO3 (centres undefined),1 µM,> 100 µM,36.4,0.36,
CCOC(=O)C1CCN(C(=O)c2cc3c(F)c(Cl)ccc3[nH]2)CC1,> 100 µM,> 200 µM,8.24,0.42,
CCOC(=O)C1CCN(C(=O)CNc2ccc(Cl)cc2)CC1,> 100 µM,,23.8,0.081,
Cn1c(C(=O)NC2CC(C)(C)NC(C)(C)C2)cc2cc(Cl)ccc21,> 100 µM,37.5 µM,6.65,,
CCOC(=O)C1CCN(C(=O)c2cc3c(C)cc(C)cc3[nH]2)CC1,> 100 µM,> 200 µM,8.14,0.33,
O=C(NC1CC2(CCCCC2)NC2(CCCCC2)C1)c1cc2c(F)c(Cl)ccc2[nH]1 (centres undefined),3.6 µM,11.4 µM,8.05,0.25,
CCOC(=O)C1CCN(C(=O)c2cc3cc(F)c(Cl)cc3n2C)CC1,> 100 µM,41.1 µM,,,
O=C(NC1CC2(CCCCC2)NC2(CCCCC2)C1)c1cc2ccc(Cl)cc2[nH]1 (centres undefined),> 100 µM,10.7 µM,,,11%
CCOC(=O)C1CCN(C(=O)c2cc3cc(F)c(Cl)cc3[nH]2)CC1,> 100 µM,121 µM,,,
O=C(CNc1ccc(Cl)cc1)NC1CC2(CCCCC2)NC2(CCCCC2)C1 (centres undefined),2.2 µM,> 100 µM,19.6,,
Cc1cc(C)c2cc(C(=O)NC3CC(C)(C)NC(C)(C)C3)n(C)c2c1,> 100 µM,> 37.5 µM,7.61,,
CC1(C)CC(NC(=O)c2cc3cc(Cl)ccc3[nH]2)CC(C)(C)N1,3.65 µM,48.6 µM,8.7,0.82,
